Data from ChEMBL document CHEMBL3272271, “Folate antagonists. 13. 2,4-Diamino-6-](alpha,alpha,alpha-trifluoro-m-tolyl)thio]quinazoline and related 2,4-diamino-6-[(phenyl- and naphthyl)thio]quinazolines, a unique class of antimetabolites with extraordinary antimalarial and antibacterial effects” (J Med Chem, 1978).
Values after ≈ are worked out from the molar mass of the structure shown. Active and inactive are the calls of the source. The rule behind the calls is not given here.

Experiments:
Plasmodium berghei [1] = assay: Antimalarial activity against Plasmodium berghei infected in mouse assessed as disease cure from parasite infection at 320 mg/kg, sc administered 72 hrs after infection; assay type: functional, organism-based; parameters: dose 320 mg/kg
Plasmodium berghei [2] = assay: Antimalarial activity against trophozoite-induced Plasmodium berghei infected in mouse assessed as daily dose required to suppression of 90% parasite infection administered with diet for 6 days; assay type: functional
Plasmodium berghei [3] = assay: Antimalarial activity against Plasmodium berghei infected in mouse assessed as disease cure from parasite infection at 160 mg/kg, sc administered 72 hrs after infection; assay type: functional, organism-based; parameters: dose 160 mg/kg
Plasmodium berghei [4] = assay: Antimalarial activity against chloroquine-resistant Plasmodium berghei assessed as drug resistance; assay type: functional, organism-based
Plasmodium berghei [5] = assay: Antimalarial activity against cycloguanil-resistant Plasmodium berghei assessed as drug resistance; assay type: functional, organism-based
Plasmodium gallinaceum [6] = assay: Antimalarial activity against trophozoite-induced Plasmodium gallinaceum infected in white leghorn chicken assessed as increase in mean survival days of host at 20 mg/kg, sc administered 72 hrs after infection relative to control; assay type: functional; conditions: route subcutaneous
Plasmodium falciparum [7] = assay: Antimalarial activity against pyrimethamine-sensitive Plasmodium falciparum Vietnam Oak Knoll infected in Aotus trivirgatus owl monkey model assessed as cure from parasite infection at 0.6 mg/kg, po qd for 7 days relative to control; assay type: functional
Plasmodium gallinaceum [8] = assay: Antimalarial activity against sporozoite-induced Plasmodium gallinaceum infected in white leghorn chicken assessed as disease cure from parasite infection at 160 mg/kg, sc administered 72 hrs after infection; assay type: functional, organism-based; parameters: dose 160 mg/kg
Plasmodium gallinaceum [9] = assay: Antimalarial activity against trophozoite-induced Plasmodium gallinaceum infected in white leghorn chicken assessed as increase in mean survival days of host at 40 mg/kg, sc administered 72 hrs after infection relative to control; assay type: functional; conditions: route subcutaneous
Plasmodium berghei [10] = assay: Antimalarial activity against Plasmodium berghei infected in mouse assessed as disease cure from parasite infection at 20 mg/kg, sc administered 72 hrs after infection; assay type: functional, organism-based; parameters: dose 20 mg/kg
Plasmodium falciparum [11] = assay: Antimalarial activity against chloroquine-susceptible, pyrimethamine-resistant Plasmodium falciparum Malayan Camp infected in Aotus trivirgatus owl monkey model assessed as cure from parasite infection at 0.39 to 5 mg/kg, po qd for 7 days relative to control; assay type: functional; conditions: dose mg/kg 0.39-5
Plasmodium berghei [12] = assay: Antimalarial activity against Plasmodium berghei infected in mouse assessed as increase in mean survival days of host at 5 mg/kg, sc administered 72 hrs after infection relative to control; assay type: functional; conditions: route subcutaneous
Shigella sonnei = assay: Antibacterial activity against Shigella sonnei C-10 by gradient plate test; assay type: functional
Plasmodium gallinaceum [13] = assay: Antimalarial activity against trophozoite-induced Plasmodium gallinaceum infected in white leghorn chicken assessed as disease cure from parasite infection at 160 mg/kg, sc administered 72 hrs after infection; assay type: functional, organism-based; parameters: dose 160 mg/kg
Plasmodium gallinaceum [14] = assay: Antimalarial activity against trophozoite-induced Plasmodium gallinaceum infected in white leghorn chicken assessed as increase in mean survival days of host at 160 mg/kg, sc administered 72 hrs after infection relative to control; assay type: functional; conditions: route subcutaneous
Plasmodium falciparum [15] = assay: Antimalarial activity against chloroquine-susceptible, pyrimethamine-resistant Plasmodium falciparum Malayan Camp infected in Aotus trivirgatus owl monkey model assessed as cure from parasite infection at >2.5 mg/kg, po qd for 7 days relative to control; assay type: functional
Plasmodium gallinaceum [16] = assay: Antimalarial activity against sporozoite-induced Plasmodium gallinaceum infected in white leghorn chicken assessed as disease cure from parasite infection at 320 mg/kg, sc administered 72 hrs after infection; assay type: functional, organism-based; parameters: dose 320 mg/kg
Escherichia coli = assay: Antibacterial activity against Escherichia coli Vogel by gradient plate test; assay type: functional
Plasmodium gallinaceum [17] = assay: Antimalarial activity against trophozoite-induced Plasmodium gallinaceum infected in white leghorn chicken assessed as increase in mean survival days of host at 10 mg/kg, sc administered 72 hrs after infection relative to control; assay type: functional; conditions: route subcutaneous
Plasmodium berghei [18] = assay: Antimalarial activity against Plasmodium berghei infected in mouse assessed as increase in mean survival days of host at 10 mg/kg, sc administered 72 hrs after infection relative to control; assay type: functional; conditions: route subcutaneous
Plasmodium gallinaceum [19] = assay: Antimalarial activity against sporozoite-induced Plasmodium gallinaceum infected in white leghorn chicken assessed as disease cure from parasite infection at 80 mg/kg, sc administered 72 hrs after infection; assay type: functional, organism-based; parameters: dose 80 mg/kg
Plasmodium gallinaceum [20] = assay: Antimalarial activity against trophozoite-induced Plasmodium gallinaceum infected in white leghorn chicken assessed as increase in mean survival days of host at 320 mg/kg, sc administered 72 hrs after infection relative to control; assay type: functional; conditions: route subcutaneous
Plasmodium berghei [21] = assay: Antimalarial activity against Plasmodium berghei infected in mouse assessed as increase in mean survival days of host at 1.25 mg/kg, sc administered 72 hrs after infection relative to control; assay type: functional; conditions: route subcutaneous
Pseudomonas aeruginosa = assay: Antibacterial activity against Pseudomonas aeruginosa 28 by gradient plate test; assay type: functional
Plasmodium berghei [22] = assay: Antimalarial activity against Plasmodium berghei infected in mouse assessed as disease cure from parasite infection at 640 mg/kg, sc administered 72 hrs after infection; assay type: functional, organism-based; parameters: dose 640 mg/kg
Staphylococcus aureus [23] = assay: Antibacterial activity against drug-resistant Staphylococcus aureus S18713 by gradient plate test; assay type: functional
Plasmodium berghei [24] = assay: Ratio of quinine hydrochloride SD90 to compound SD90 for trophozoite-induced Plasmodium berghei infected in mouse assessed as daily dose required to suppression of 90% parasite infection administered with diet for 6 days; assay type: functional
Plasmodium gallinaceum [25] = assay: Antimalarial activity against trophozoite-induced Plasmodium gallinaceum infected in white leghorn chicken assessed as disease cure from parasite infection at 320 mg/kg, sc administered 72 hrs after infection; assay type: functional, organism-based; parameters: dose 320 mg/kg
Plasmodium falciparum [26] = assay: Antimalarial activity against pyrimethamine-sensitive Plasmodium falciparum Vietnam Oak Knoll infected in Aotus trivirgatus owl monkey model assessed as cure from parasite infection at 0.098 to 1.56 mg/kg, po qd for 7 days relative to control; assay type: functional; conditions: dose mg/kg 0.098-1.56
Plasmodium berghei [27] = assay: Antimalarial activity against Plasmodium berghei infected in mouse assessed as disease cure from parasite infection at 40 mg/kg, sc administered 72 hrs after infection; assay type: functional, organism-based; parameters: dose 40 mg/kg
Plasmodium gallinaceum [28] = assay: Antimalarial activity against trophozoite-induced Plasmodium gallinaceum infected in white leghorn chicken assessed as increase in mean survival days of host at 80 mg/kg, sc administered 72 hrs after infection relative to control; assay type: functional; conditions: route subcutaneous
Plasmodium berghei [29] = assay: Antimalarial activity against Plasmodium berghei infected in mouse assessed as disease cure from parasite infection at 80 mg/kg, sc administered 72 hrs after infection; assay type: functional, organism-based; parameters: dose 80 mg/kg
Enterococcus faecalis = assay: Antibacterial activity against Streptococcus faecalis MGH-2 by gradient plate test; assay type: functional
Plasmodium berghei [30] = assay: Antimalarial activity against Plasmodium berghei infected in mouse assessed as increase in mean survival days of host at 2.5 mg/kg, sc administered 72 hrs after infection relative to control; assay type: functional; conditions: route subcutaneous
Staphylococcus aureus [31] = assay: Antibacterial activity against Staphylococcus aureus UC-96 by gradient plate test; assay type: functional
Plasmodium gallinaceum [32] = assay: Antimalarial activity against sporozoite-induced Plasmodium gallinaceum infected in white leghorn chicken assessed as increase in mean survival days of host at 10 mg/kg, sc administered 72 hrs after infection relative to control; assay type: functional; conditions: route subcutaneous
Plasmodium berghei [33] = assay: Antimalarial activity against Plasmodium berghei infected in mouse assessed as increase in mean survival days of host at 40 mg/kg, sc administered 72 hrs after infection relative to control; assay type: functional; conditions: route subcutaneous
Plasmodium gallinaceum [34] = assay: Antimalarial activity against sporozoite-induced Plasmodium gallinaceum infected in white leghorn chicken assessed as disease cure from parasite infection at 20 mg/kg, sc administered 72 hrs after infection; assay type: functional, organism-based; parameters: dose 20 mg/kg
Plasmodium gallinaceum [35] = assay: Antimalarial activity against sporozoite-induced Plasmodium gallinaceum infected in white leghorn chicken assessed as disease cure from parasite infection at 40 mg/kg, sc administered 72 hrs after infection; assay type: functional, organism-based; parameters: dose 40 mg/kg
Plasmodium gallinaceum [36] = assay: Antimalarial activity against sporozoite-induced Plasmodium gallinaceum infected in white leghorn chicken assessed as disease cure from parasite infection at 10 mg/kg, sc administered 72 hrs after infection; assay type: functional, organism-based; parameters: dose 10 mg/kg
Plasmodium berghei [37] = assay: Antimalarial activity against Plasmodium berghei infected in mouse assessed as increase in mean survival days of host at 20 mg/kg, sc administered 72 hrs after infection relative to control; assay type: functional; conditions: route subcutaneous
Mus musculus = assay: Toxicity in Plasmodium berghei infected mouse assessed as mortality at 640 mg/kg, sc administered 72 hrs after infection measured after 2 to 5 days; assay type: organism-based; parameters: dose 640 mg/kg, route subcutaneous; conditions: in vivo
[38] = system: Mycobacterium tuberculosis; assay: Antibacterial activity against Mycobacterium tuberculosis H37Ra by gradient plate test; assay type: functional

Structure (SMILES) | Activity (Plasmodium berghei [1]) | Activity (Plasmodium berghei [3]) | Activity (Plasmodium falciparum [7]) [%] | Activity (Plasmodium gallinaceum [8]) | Activity (Plasmodium falciparum [11]) [%] | MST (Plasmodium berghei [12]) [days] | MIC (Shigella sonnei) [µg/mL] | MST (Plasmodium gallinaceum [14]) [days] | Activity (Plasmodium falciparum [15]) [%] | Activity (Plasmodium gallinaceum [16]) | MIC (Escherichia coli) [µg/mL] | MST (Plasmodium berghei [18]) [days] | Activity (Plasmodium gallinaceum [19]) | MST (Plasmodium berghei [21]) [days] | MIC (Pseudomonas aeruginosa) [µg/mL] | Activity (Plasmodium berghei [22]) | MIC (Staphylococcus aureus [23]) [µg/mL] | Activity (Plasmodium falciparum [26]) [%] | Activity (Plasmodium berghei [27]) | Activity (Plasmodium berghei [29]) | further results
Nc1nc(N)c2cc(Sc3ccc4ccccc4c3)ccc2n1 | Active | Active | >50 | Active | >50 | 6.5 | 2.5 (≈ 7.85 µM) | 15 | >50 | Active | < 0.25 | 11.3 | Active | 2.9 | > 25 | Active | < 0.25 | >50 | Active | Active | SD90 (Plasmodium berghei [2]): 0.08 mg/kg/day; Activity (Plasmodium berghei [4]): inactive; Activity (Plasmodium berghei [5]): Active; MST (Plasmodium gallinaceum [6]): 7.8 days; MST (Plasmodium gallinaceum [9]): 12.4 days; Activity (Plasmodium berghei [10]): Active; Activity (Plasmodium gallinaceum [13]): Active; MST (Plasmodium gallinaceum [17]): 6.2 days; MST (Plasmodium gallinaceum [20]): 16 days; Ratio (Plasmodium berghei [24]): 880; Activity (Plasmodium gallinaceum [25]): Active; MST (Plasmodium gallinaceum [28]): 16.2 days; MIC (Enterococcus faecalis): < 0.25 µg/mL; MST (Plasmodium berghei [30]): 5.3 days; MIC (Staphylococcus aureus [31]): < 0.25 µg/mL
Nc1nc(N)c2cc(Sc3cccc(C(F)(F)F)c3)ccc2n1 [WR-159412] | Active | Active | >50 | Active | >50 | 8.7 | – | 15.4 | >50 | Active | – | 9.1 | Active | 0.5 | – | Active | – | >50 | Active | Active | MST (Plasmodium gallinaceum [32]): 7.3 days; MST (Plasmodium berghei [33]): 14.9 days; Activity (Plasmodium gallinaceum [34]): Active; Activity (Plasmodium gallinaceum [35]): Active; Activity (Plasmodium gallinaceum [36]): Active; MST (Plasmodium berghei [37]): 12.7 days; MST (Plasmodium berghei [30]): 2.7 days
Nc1nc(N)c2c(Cl)c(Sc3ccc(F)cc3)ccc2n1 | Active | Active | – | – | – | – | < 0.25 | – | – | – | < 0.25 | – | – | – | > 25 | Active | < 0.25 | – | Active | Active | Activity (Mus musculus): Toxic; MST (Plasmodium berghei [33]): 15.6 days; MST (Plasmodium berghei [37]): 6.9 days; MIC (Enterococcus faecalis): < 0.25 µg/mL; MIC [38]: 5 µg/mL (≈ 15.6 µM); MIC (Staphylococcus aureus [31]): < 0.25 µg/mL
